Laboratory results reported in patent US20170105986A1, “Topical Formulation to Enhance Genital Sensation and Function” (priority 2014, published 2017).

System: genital area of the patient
Assay: Short term effect of the topical formulation applied to the genital area, as reported by users
Assay type: in vivo, human
Conditions: for somewhat improved sexual function continuing after use: middle-aged male, component of the formula; for functionality as component of the topical formulation: forms of coQ10 added to the formulation
Description: The following examples are used to show the short term effect of the topical formulation when applied to the genital area of the patient.

Compound	period for which the effects of the topical formulation are prolonged following administration (ATP included in second core composition) [h]	somewhat improved sexual function continuing after use	functionality as component of the topical formulation
Nc1ncnc2c1ncn2[C@@H]1O[C@H](COP(=O)(O)OP(=O)(O)OP(=O)(O)O)[C@@H](O)[C@H]1O [ATP, adenosine triphosphate]	~12	about 10 hours	
NC(=O)c1ccc[n+]([C@@H]2O[C@H](CO)[C@@H](O)[C@H]2O)c1 [nicotinamide ribose, nicotinamide riboside]		about 10 hours	
COc1c(O)c(C)c(C/C=C(\C)CC/C=C(\C)CC/C=C(\C)CC/C=C(\C)CC/C=C(\C)CC/C=C(\C)CC/C=C(\C)CC/C=C(\C)CC/C=C(\C)CCC=C(C)C)c(O)c1OC [ubiquinol, reference compound]			seems not functional
COC1=C(OC)C(=O)C(C/C=C(\C)CC/C=C(\C)CC/C=C(\C)CC/C=C(\C)CC/C=C(\C)CC/C=C(\C)CC/C=C(\C)CC/C=C(\C)CC/C=C(\C)CCC=C(C)C)=C(C)C1=O [ubiquinone, reference compound]			seems not functional
